Reference: patent US9388141B2, “Acylaminocycloalkyl compounds suitable for treating disorders that respond to modulation of dopamine D3 receptor” (AbbVie Deutschland GmbH & Co. KG, priority 2013, dated 2016)

Tests used:
[1] = target: T1, human dopamine D2L receptors (long isoform) (Homo sapiens, UniProt P14416); experiment: Dopamine D2L receptor binding, [125I]-iodospiperone displacement; conditions: selectivity ratio Ki (D2L)/Ki (D3)
T1 construct: expressed in transfected cells; host or cells: HEK-293
Experimental: (§1) The substance to be tested was either dissolved in methanol/Chremophor® (BASF SE) or in dimethyl sulfoxide and then diluted with water to the desired concentration.
(§2) Each assay mixture was run in triplicate. • The incubation buffer contained 50 mM tris, 120 mM NaCl, 5 mM KCl, 2 mM CaCl2, 2 mM MgCl2 and 0.1% bovine serum albumin, 10 μM quinolone and 0.1% ascorbic acid (prepared fresh daily). […] Each assay mixture was run in triplicate. • The incubation buffer contained 50 mM tris, 120 mM NaCl, 5 mM KCl, 2 mM CaCl2, 2 mM MgCl2 and 0.1% bovine serum albumin. The buffer was adjusted to pH 7.4 with HCl. c) Measurement and Analysis: • After having been incubated at 25° C. for 60 minutes, the assay mixtures were filtered through a Whatman GF/B glass fiber filter under vacuum using a cell collecting device. The filters were transferred to scintillation viols using a filter transfer system. After 4 ml of Ultima Gold® (Packard) have been added, the samples were shaken for one hour and the radioactivity was then counted in a Beta-Counter (Packard, Tricarb 2000 or 2200CA).

[2] = target: T2, human dopamine D3 receptors (Homo sapiens, UniProt P35462); experiment: Dopamine D3 receptor binding, [125I]-iodosulpride displacement; conditions: membranes of HEK-293 cells with human D3 receptors, 0.1 nM [125I]-iodosulpride
T2 construct: expressed in transfected cells; host or cells: HEK-293
Experimental: as §1, §2

[3] = Determination of the microsomal half-life / microsomal clearance; assay type: in vitro ADME; conditions: human liver microsomes, 0.5 μM test substance, 0.25 mg microsomal protein/ml, pH 7.4, 37° C.
Experimental: The metabolic stability of the compounds of the invention was determined in the following assay.
The test substances were incubated in a concentration of 0.5 μM as follows:
0.5 μM test substance are preincubated together with liver microsomes from different species (from rat, human or other species) (0.25 mg of microsomal protein/ml) in 0.05 M potassium phosphate buffer of pH 7.4 in microtiter plates at 37° C. for 5 min. The reaction is started by adding NADPH (1 mg/mL). After 0, 5, 10, 15, 20 and 30 min, 50 μl aliquots are removed, and the reaction is immediately stopped and cooled with the same volume of acetonitrile. The samples are frozen until analyzed. The remaining concentration of undegraded test substance is determined by MSMS. The half-life (T1/2) is determined from the gradient of the signal of test substance/unit time plot, it being possible to calculate the half-life of the test substance, assuming first order kinetics, from the decrease in the concentration of the compound with time. The microsomal clearance (mCl) is calculated from mCl=1n2/T1/2/(content of microsomal protein in mg/ml)×1000 [[…]] (modified from references: Di, The Society for Biomoleculur Screening, 2003, 453-462; Obach, DMD, 1999 vol 27. N 11, 1350-1359).

T2 sequence (P35462 whole entry): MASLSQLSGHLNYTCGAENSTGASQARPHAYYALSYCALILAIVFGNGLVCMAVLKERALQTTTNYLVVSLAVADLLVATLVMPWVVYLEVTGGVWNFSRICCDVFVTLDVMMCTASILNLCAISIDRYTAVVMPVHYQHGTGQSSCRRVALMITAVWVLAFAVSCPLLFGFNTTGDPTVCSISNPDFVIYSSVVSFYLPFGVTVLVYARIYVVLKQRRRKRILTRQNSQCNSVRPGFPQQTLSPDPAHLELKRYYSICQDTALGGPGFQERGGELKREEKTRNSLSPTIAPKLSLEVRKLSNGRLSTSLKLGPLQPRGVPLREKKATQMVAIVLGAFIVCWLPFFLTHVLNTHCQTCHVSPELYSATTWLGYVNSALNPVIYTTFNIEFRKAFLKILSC
T1 sequence (P14416 whole entry, canonical isoform): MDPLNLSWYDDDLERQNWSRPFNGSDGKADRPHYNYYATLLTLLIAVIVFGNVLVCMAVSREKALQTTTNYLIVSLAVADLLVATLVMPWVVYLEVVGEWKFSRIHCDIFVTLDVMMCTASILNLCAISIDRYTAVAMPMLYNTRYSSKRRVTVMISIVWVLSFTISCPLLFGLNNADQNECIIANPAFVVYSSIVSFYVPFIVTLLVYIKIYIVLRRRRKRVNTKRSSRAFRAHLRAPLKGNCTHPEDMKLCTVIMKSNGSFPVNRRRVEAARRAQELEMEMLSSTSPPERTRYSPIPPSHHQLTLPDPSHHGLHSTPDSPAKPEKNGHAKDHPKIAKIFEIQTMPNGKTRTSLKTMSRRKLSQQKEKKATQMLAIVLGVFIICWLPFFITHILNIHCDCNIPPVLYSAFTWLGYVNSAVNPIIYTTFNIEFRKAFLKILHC

| SMILES | D2/D3, Ki (D2L)/Ki (D3) [1] | Ki [2] [µM] | Human mCl [3] |
| --- | --- | --- | --- |
| CC(C)(C)c1nc(C2CCCC2)cc(N2CCN(CC[C@H]3CC[C@H](NC(=O)[C@H]4CC[C@H](O)CC4)CC3)CC2)n1 [Compound 35, trans-N-[trans-4-[2-[4-(2-tert-butyl-6-cyclopentyl-pyrimidin-4-yl)piperazin-1-yl]ethyl]cyclohexyl]-4-hydroxy-cyclohexanecarboxamide] | + (+>10) | < 0.01 | + (+: 20-120 μl min^−1 mg^−1) |
| CC(C)(C)c1nc(C2CCC2)cc(N2CCN(CC[C@H]3CC[C@H](NC(=O)[C@H]4CC[C@@H](O)CC4)CC3)CC2)n1.O=C(O)C(F)(F)F [Compound 14, Cis-N-[trans-4-[2-[4-(2-tert-butyl-6-cyclobutyl-pyrimidin-4-yl)piperazin-1-yl]ethyl]cyclohexyl]-4-hydroxy-cyclohexanecarboxamide; 2,2,2-trifluoroacetic acid] | ++ (++>20) | < 0.01 | ∘ (∘: >120 μl min^−1 mg^−1) |
| CC(C)c1cc(N2CCN(CC[C@H]3CC[C@H](NC(=O)[C@H]4CC[C@H](O)CC4)CC3)CC2)nc(C(C)(C)C)n1 [Compound 32, Trans-N-[trans-4-[2-[4-(2-tert-butyl-6-isopropyl-pyrimidin-4-yl)piperazin-1-yl]ethyl]cyclohexyl]-4-hydroxy-cyclohexanecarboxamide] | ++ (++>20) | < 0.01 | + (+: 20-120 μl min^−1 mg^−1) |
| COCCc1cc(N2CCN(CC[C@H]3CC[C@H](NC(=O)[C@H]4CC[C@H](OC)CC4)CC3)CC2)nc(C(C)(C)C)n1 [Compound 24, trans-N-[trans-4-[2-[4-[2-tert-butyl-6-(2-methoxyethyl)pyrimidin-4-yl]piperazin-1-yl]ethyl]cyclohexyl]-4-methoxy-cyclohexanecarboxamide] | ++ (++>20) | < 0.05 | ∘ (∘: >120 μl min^−1 mg^−1) |
| CC(C)(C)c1nc(C2CCC2)cc(N2CCN(CC[C@H]3CC[C@H](NC(=O)[C@H]4C[C@H](O)C4)CC3)CC2)n1.O=C(O)C(F)(F)F [Compound 38, trans-N-[trans-4-[2-[4-(2-tert-butyl-6-cyclobutyl-pyrimidin-4-yl)piperazin-1-yl]ethyl]cyclohexyl]-3-hydroxy-cyclobutanecarboxamide; 2,2,2-trifluoroacetic acid] | ++ (++>20) | < 0.01 | ++ (++: <20 μl min^−1 mg^−1) |
| CC(C)(C)c1nc(C2CCC2)cc(N2CCN(CC[C@H]3C[C@H](NC(=O)[C@H]4CC[C@H](O)CC4)C3)CC2)n1 [Compound 9, Trans-N-[trans-3-[2-[4-(2-tert-butyl-6-cyclobutyl-pyrimidin-4-yl)piperazin-1-yl]ethyl]cyclobutyl]-4-hydroxy-cyclohexanecarboxamide] | +++ (+++>50) | < 0.01 | + (+: 20-120 μl min^−1 mg^−1) |
| COCCc1cc(N2CCN(CC[C@H]3C[C@H](NC(=O)[C@H]4CC[C@H](O)CC4)C3)CC2)nc(C(C)(C)C)n1.O=C(O)C(F)(F)F [Compound 7, Trans-N-[trans-3-[2-[4-[2-tert-butyl-6-(2-methoxyethyl)pyrimidin-4-yl]piperazin-1-yl]ethyl]cyclobutyl]-4-hydroxy-cyclohexanecarboxamide; 2,2,2-trifluoroacetic acid] | +++ (+++>50) | < 0.01 | + (+: 20-120 μl min^−1 mg^−1) |
| CC(C)(C)c1nc(N2CCN(CC[C@H]3CC[C@H](NC(=O)[C@H]4CC[C@H](O)CC4)CC3)CC2)cc(C(F)(F)F)n1 [Compound 21, trans-N-[trans-4-[2-[4-[2-tert-butyl-6-(trifluoromethyl)pyrimidin-4-yl]piperazin-1-yl]ethyl]cyclohexyl]-4-hydroxy-cyclohexanecarboxamide] | ++ (++>20) | < 0.01 | + (+: 20-120 μl min^−1 mg^−1) |
